Series [1] has as its system caspase-3 activity induced by ZIKV in Vero cells. Nature of the series: cells. The class given is cell-based. As to conditions: Zika virus, read-out: Caspase 3 (ZIKV Antiviral Assays), IC50.
The nature of series [2]: in vitro. As to conditions: human.
Series [3] has as its system ZIKV-RLuc (Cambodian strain FSS13025). Nature of the series: microbe, parasite or virus in culture. Type of series: cell-based, Zika virus. The conditions noted are these: for IC50 / AC50: Zika virus, Vero; for IC50: 48 h, read-out: Rluc-ZIKV (ZIKV Antiviral Assays), IC50.
Series [4] has as its system ZIKV-mCherry (Cambodian strain FSS13025). The experiment in a line: microbe, parasite or virus in culture. Type of series: cell-based, Zika virus. As to conditions: for AC50: Zika virus, Vero.
For series [5], the system named is wild-type ZIKV (Ugandan MR766 strain) in Vero cells. The experiment in a line: ZIKV cytopathic effect (CPE) inhibition qHTS assay, CellTiter-Glo readout. Type of series: cell-based, Zika virus. The conditions noted are these: for AC50 / IC50: Zika virus; for IC50: read-out: ZIKV-infection (CPE, ZIKV Antiviral Assays), IC50. (Protection from cytopathic effect is a common read-out in antiviral testing.)

Series [6] in a line: in vitro. The conditions noted are these: African green monkey.
Series [7] relates to mCherry-ZIKV in human neuronal progenitor cells. The experiment in a line: microbe, parasite or virus in culture. Type of series: cell-based, Zika virus. As to conditions: for AC50: Zika virus, Neuronal progenitor cell.
Series [8] has as its system Vero cells.
Where [9] appears, read: read-out: Log AC50 (M) (converted).
Where [10] appears, read: Vero, read-out: Log AC50 (M) (converted).
[11] abbreviates: ZIKV-infected Vero cells, 48 hr, unit inferred.
Where [12] appears, read: Vero, from Hill fit of the response curve, 50% of maximum activity response, 194 cherry-picked compounds, protocol name not given, read-out: AC50.
[13] abbreviates: Vero, potency in log units (Molar) from Hill fit of the response curve, 194 cherry-picked compounds, protocol name not given, read-out: Log AC50 (converted).
[14] abbreviates: Vero cells, wild-type ZIKV MOI 1, 48 hr, unit inferred.
Where [15] appears, read: difference between neutral response and maximum compound response.

Like-named read-outs stand apart in the source and are kept apart here. Bounds are passed on as bounds.

A word on the IC50: it is the midpoint of a concentration-inhibition curve. Usually AC50 stands for the midpoint of the concentration-response curve, whichever way the signal moves. Consider `CCC(C)C1NC(=O)C(C(C)=O)=C1O` (stereo not shown) [NCGC00168879-02], for which the IC50 was 3.82 µM in series [1] (Vero, 48 h); 12 µM in series [3]; 21.1 µM in series [5] (Vero, 48 h). Besides, the figures for the CC50 in series [2] and in series [6] were above 30 µM and above 50 µM, respectively. Also, the “CC-v2 (curve class of the dose response curve)” value in series [4] is given as -1.2. Besides, the “Efficacy (difference between neutral response and maximum compound response)” value in series [4] is listed as -63.104. For the same compound, the “Max Resp (difference between neutral response and response at highest compound concentration)” value in series [4] is on record as -99.611. The AC50 was 2.17e-05 M in series [4], 2.17e-05 M in series [4] (setting [9]), 2.11e-05 M in series [5] (Vero) and 2.11e-05 M in series [5] (setting [10]). Moreover, the “CC-v2 (curve class classification of the dose response curve)” value in series [5] is -1.2. This compound displayed an Efficacy in series [5] of -73.15.
On to `COc1c(C(C)C)cc2c(c1O)[C@@]1(C(=O)O)CCCC(C)(C)C1CC2` (stereo partly shown) [NCGC00169945-03], for which the IC50 is 20.4 µM in series [1] (setting [11]), 16.1 µM in series [3] and 14.3 µM in series [5] (setting [14]). In series [2], this compound gave a CC50 of 12.5 µM. Also, the “CC-v2 (curve class of the dose response curve)” value in series [4] was -2.3. Further, the “Efficacy (difference between neutral response and maximum compound response)” value in series [4] is listed as -78.993. Further, in series [4], the “Max Resp (difference between neutral response and response at highest compound concentration)” value is -100.305. Besides, the half-maximal activity concentration (AC50) is 1.47e-05 M in series [4], 1.47e-05 M in series [4] (setting [9]), 1.43e-05 M in series [5] (setting [12]) and 1.43e-05 M in series [5] (setting [13]). The compound also showed an Efficacy in series [5] (setting [15]) of -27.847. In series [6], this compound had a CC50 at 48 h above 50 µM.
On to `CN[C@H](CC(C)C)C(=O)N[C@H]1C(=O)N[C@@H](CC(N)=O)C(=O)N[C@H]2C(=O)N[C@H]3C(=O)N[C@H](C(=O)N[C@H](C(=O)O)c4cc(O)cc(O)c4-c4cc3ccc4O)[C@H](O[C@H]3C[C@](C)(N)[C@@H](O)[C@H](C)O3)c3ccc(c(Cl)c3)Oc3cc2cc(c3O[C@@H]2O[C@H](CO)[C@@H](O)[C@H](O)[C@H]2O[C@H]2C[C@](C)(NCc3ccc(-c4ccc(Cl)cc4)cc3)[C@@H](O)[C@H](C)O2)Oc2ccc(cc2Cl)[C@H]1O` [NCGC00485478-01], for which the concentration for half-maximal inhibition (IC50) in series [1] (Vero, 48 h) is above 48 µM; in series [3], 12.3 µM; in series [5] (Vero, 48 h), 13.7 µM. Besides, the CC50 in series [2] was above 30 µM; in series [6], above 50 µM. Further, the “CC-v2 (curve class of the dose response curve)” value in series [4] was determined as 4. For the same compound, in series [4], the “Efficacy (difference between neutral response and maximum compound response)” value came out at 0. Also, the “Max Resp (difference between neutral response and response at highest compound concentration)” value in series [4] is reported as -93.894. In addition, in series [5], the Efficacy was -25.057. Also, the AC50 in series [5] (Vero) and in series [5] (setting [10]) was 1.37e-05 M each time.
In the case of `COc1cccc(-n2nc(C(=O)O)cc2-c2ccc(C3CCCCC3)c(Cl)c2)c1` [NCGC00379183-01], the IC50 worked out at 26.3 µM in series [1] (Vero, 48 h); 18.5 µM in series [3]; 29.1 µM in series [5] (Vero, 48 h). In series [2], this compound yielded a CC50 of 25.1 µM. For the same compound, in series [7], the “CC-v2 (curve class)” value is -3. For the same compound, the Efficacy was -112.723 in series [7] and -41.012 in series [5]. Besides, the “Max Resp” value in series [7] is recorded as -95.876. For the same compound, the AC50 in series [7] is 5.01e-05 M; in series [7] (setting [9]), 5.01e-05 M; in series [4], 1.68e-05 M; in series [4] (setting [9]) it was 1.68e-05 M; in series [5] (Vero) it was 2.91e-05 M; in series [5] (setting [10]), 2.91e-05 M. Further, in series [4], the “CC-v2 (curve class of the dose response curve)” value amounted to 5. Also, the “Efficacy (difference between neutral response and maximum compound response)” value in series [4] is on record as -42.035. Moreover, the “Max Resp (difference between neutral response and response at highest compound concentration)” value in series [4] was -100.305. In series [5], the “CC-v2 (curve class classification of the dose response curve)” value is reported as -3. This compound also gave a CC50 at 48 h in series [6] (Vero cells) above 50 µM.
Regarding `C[C@H]1CC[C@@]2(OC1)O[C@H]1CC3C4CC=C5C[C@H](O)C[C@@H](O[C@@H]6O[C@@H](C)[C@H](O)[C@@H](O)[C@H]6O[C@@H]6O[C@@H](C)[C@H](O)[C@@H](O)[C@H]6O)[C@]5(C)C4CC[C@]3(C)[C@H]1[C@@H]2C` (stereo partly shown) [NCGC00380128-01, Ophiopogonin B], the half-inhibitory concentration (IC50) was above 48 µM in series [1] (setting [11]), 8.74 µM in series [3] and 17.2 µM in series [5] (setting [14]). In series [2], this compound showed a CC50 above 30 µM. In addition, in series [4], the “CC-v2 (curve class of the dose response curve)” value is listed as -1.4. The “Efficacy (difference between neutral response and maximum compound response)” value in series [4] is -59.028. In addition, the “Max Resp (difference between neutral response and response at highest compound concentration)” value in series [4] is -100.132. Also, the AC50 in series [5] (setting [12]) and in series [5] (setting [13]) was 1.72e-05 M throughout. For the same compound, the “CC-v2 (curve class classification of the dose response curve)” value in series [5] (curve class v2 (Inglese et al. 2006)) was -2.2. The Efficacy in series [5] (setting [15]) is given as -28.987. For the same compound, the CC50 at 48 h in series [6] was above 50 µM.
Turning to `CC(=O)OC[C@]12[C@H](OC(C)=O)C(=O)[C@@H]3[C@@H](O)[C@@]14O[C@@]3(C)COC(=O)c1cccnc1[C@@H](C)[C@H](C)C(=O)O[C@@H]([C@H](OC(C)=O)[C@@H]2OC(C)=O)[C@]4(C)O` [NCGC00385298-01], the IC50 in series [1] (Vero, 48 h) is 9.86 µM; in series [3], 9.81 µM; in series [5] (Vero, 48 h) it was 17.2 µM. In addition, the CC50 in series [2] was above 30 µM; in series [6], above 50 µM. In addition, in series [3], the “CC-v2 (curve class classification v2 of the dose response curve)” value is recorded as -2.3. In addition, the “Efficacy (difference between neutral response and maximum compound response)” value is reported as -117.521 in series [3] and -66.581 in series [4]. Besides, the “Max Resp (difference between neutral response and compound response for highest compound concentration)” value in series [3] is listed as -98.025. Besides, the concentration at half-maximal activity (AC50) in series [3] is 9.81e-06 M; in series [3] (setting [9]) it was 9.81e-06 M; in series [4], 3.53e-06 M; in series [4] (setting [9]) it was 3.53e-06 M; in series [8], 9.81 µM; in series [5] (Vero), 1.72e-05 M. Besides, the AC50 in series [5] (setting [10]) was 1.72e-05 M. The “CC-v2 (curve class of the dose response curve)” value in series [4] is recorded as -1.3. Besides, the “Max Resp (difference between neutral response and response at highest compound concentration)” value in series [4] was -100.048. Further, the “Log AC50 (M)” value in series [8] is on record as -5.0083 M. Moreover, the “CC-v2 (curve class classification of the dose response curve)” value in series [5] is given as -2.1. The Efficacy in series [5] is -97.679.
Take `C=C(CO)[C@@]12O[C@@H]1[C@@]1(C)C(=CC2=O)CC[C@@H](O)[C@@H]1C` [NCGC00380396-01]: the half-inhibitory concentration (IC50) in series [1] (Vero, 48 h) amounted to 0.01 µM; in series [3], 4.14 µM; in series [5] (Vero, 48 h) it was 8.2 µM. The CC50 in series [2] is above 30 µM; in series [6], above 50 µM. The “CC-v2 (curve class of the dose response curve)” value in series [4] was -1.2. Besides, the “Efficacy (difference between neutral response and maximum compound response)” value in series [4] was -43.557. Moreover, the “Max Resp (difference between neutral response and response at highest compound concentration)” value in series [4] is on record as -98.628. The AC50 in series [4] was 1.34e-06 M; in series [4] (setting [9]) it was 1.34e-06 M; in series [5] (Vero), 8.2e-06 M; in series [5] (setting [10]), 8.2e-06 M. Also, in series [5], the “CC-v2 (curve class classification of the dose response curve)” value is recorded as -1.2. Also, the Efficacy in series [5] is given as -65.778.
In the case of `COc1ccc(C(O)C(C)OC2OC(CO)C(O)C(O)C2O)cc1` (stereo not shown) [NCGC00385130-01], the IC50 in series [1] (Vero, 48 h) is 0.01 µM. Moreover, in series [2], the CC50 is above 30 µM. The IC50 in series [3] was found to be 0.001 µM. For the same compound, in series [4], the “CC-v2 (curve class of the dose response curve)” value is listed as 4; the “Efficacy (difference between neutral response and maximum compound response)” value came out at 0; the “Max Resp (difference between neutral response and response at highest compound concentration)” value is on record as -28.221. For the same compound, in series [5], the “CC-v2 (curve class classification of the dose response curve)” value is on record as -3 and the Efficacy was -87.993. This compound also registered an AC50 in series [5] (Vero) of 2.02e-05 M. Moreover, the IC50 in series [5] (Vero, 48 h) was found to be 20.2 µM. For the same compound, the AC50 in series [5] (setting [10]) is 2.02e-05 M. The same compound came in with a CC50 at 48 h in series [6] (Vero cells) above 50 µM.
Turning to `COc1cc2c(c(OC)c1CC=C(C)C)C[C@H](c1ccc(O)c(CC=C(C)C)c1O)CO2` [NCGC00385627-01], the IC50 in series [1] (Vero, 48 h) stood at 16.3 µM; in series [3], 11.5 µM; in series [5] (Vero, 48 h) it was 17.8 µM. This compound had a CC50 in series [2] above 30 µM. Moreover, the “CC-v2 (curve class of the dose response curve)” value in series [4] is on record as 4. Moreover, the “Efficacy (difference between neutral response and maximum compound response)” value in series [4] is listed as -33.338. In series [4], the “Max Resp (difference between neutral response and response at highest compound concentration)” value is -100.29. This compound had an Efficacy in series [5] of -25.574. Also, the AC50 in series [5] (Vero) and in series [5] (setting [10]) was 1.78e-05 M in each case. In series [6] (Vero cells), this compound came in with a CC50 at 48 h above 50 µM.

For the origin of these results see article PMC8765781, “A platform of assays for the discovery of anti-Zika small-molecules with activity in a 3D-bioprinted outer-blood-retina model” (PLoS ONE, 2022).
